Test results as given in patent US20260000642A1 (Tay Therapeutics Limited, priority 2022, published 2026).
Values joined by “and” are separate entries in the source; they are usually repeats but may differ in a detail not shown here. Equal entries are not always repeated.

System: collagen-induced arthritis in Lewis rats
Test: Collagen-induced arthritis (CIA) model in rats: body weight, paw volume, clinical scores, clinical observations; on Detailed Clinical Scores, left forelimb: key of the grades not given here; on Detailed Clinical Scores, left hind limb: key of the grades not given here; on Detailed Clinical Scores, right forelimb: key of the grades not given here; on Detailed Clinical Scores, right hind limb: key of the grades not given here; on Detailed Clinical Scores, score: key of the grades not given here
Conditions: for Detailed Clinical Scores, left forelimb / Detailed Clinical Scores, left hind limb / Detailed Clinical Scores, right forelimb / Detailed Clinical Scores, right hind limb / Detailed Clinical Scores, score: CIA, per animal ID
[1] = CIA rats, 10 mg/kg, individual animals
[2] = CIA rats, 30 mg/kg, individual animals
[3] = CIA rats, 3 mg/kg twice daily for 21 days
[4] = CIA rats, 30 mg/kg twice daily for 21 days

CNC(=O)c1[nH]c(C(=O)NC2CCC2)cc1O[C@@H](C)c1ccccc1 [Example 101, N^5-cyclobutyl-N^2-methyl-3-(1-phenylethoxy)-1H-pyrrole-2,5-dicarboxamide]
amelioration of clinical symptoms associated with CIA (3 mg/kg, 10 mg/kg and 30 mg/kg twice daily): dose-dependent effect | Clinical Observation Day 15 [1]: Diarrhea | Clinical Observation Day 19 [1]: Diarrhea | Clinical Observation Day 12 [2]: Diarrhea | Clinical Observation Day 13 [2]: Diarrhea | Clinical Observation Day 16 [2]: Diarrhea | Clinical Observation Day 18 [2]: Diarrhea | Clinical Observation Day 19 [2]: Diarrhea | Clinical Observation Day 21 [2]: Diarrhea | diarrhea over the 21-day period (CIA rats, 3 mg/kg twice daily): did not have diarrhea | effect on hind paw volume relative to CIA + vehicle (group 2) [3]: less effective at preventing an increase in paw volume | increase in body weight, day 21 compared to day 0 [3]: 1.7% | animals that gained weight by the end of the study (of 8) (CIA rats, 3 mg/kg twice daily for 21 days (group 5)): 7/8 | animals showing signs of disease (of 8) (CIA rats, 3 mg/kg twice daily, day 12): Three animals | animals showing signs of disease (of 8) (CIA rats, 3 mg/kg twice daily, day 14): all animals | diarrhea over the 21-day period (CIA rats, 10 mg/kg twice daily (group 6)): Two different animals | weight change, day 21 compared to day 0 (CIA rats, 10 mg/kg twice daily for 21 days): approximately 0.5% | animals that gained weight by the end of the study (of 8) (CIA rats, 10 mg/kg twice daily for 21 days (group 6)): 3/8 | effect on hind paw volume relative to CIA + vehicle (group 2) (CIA rats, 10 mg/kg twice daily for 21 days, both paws, p<0.05): significantly decreased relative to group 2 on days 19 and 21 | animals showing signs of disease (of 8) (CIA rats, 10 mg/kg twice daily, day 19): all animals | diarrhea over the 21-day period (CIA rats, 30 mg/kg twice daily (group 7)): Four different animals | effect on hind paw volume relative to CIA + vehicle (group 2) [4]: most effective dose at preventing an increase in paw volume | weight change, day 21 compared to day 0 [4]: approximately 0.5% | animals that gained weight by the end of the study (of 8) (CIA rats, 30 mg/kg twice daily for 21 days (group 7)): 3/8 | animals showing signs of disease (of 8) (CIA rats, 30 mg/kg twice daily, day 12): One animal | hind paw volume increase at plateau relative to day 0 (CIA rats, 30 mg/kg twice daily, increase from around day 19): approximately 35% | Detailed Clinical Scores, left forelimb (Day 0, 3 mg/kg): 0 | Detailed Clinical Scores, left hind limb (Day 0, 3 mg/kg): 0 | Detailed Clinical Scores, right forelimb (Day 0, 3 mg/kg): 0 | Detailed Clinical Scores, right hind limb (Day 0, 3 mg/kg): 0 | Detailed Clinical Scores, score (Day 0, 3 mg/kg): 0 | Detailed Clinical Scores, left forelimb (Day 0, 10 mg/kg): 0 | Detailed Clinical Scores, left hind limb (Day 0, 10 mg/kg): 0 | Detailed Clinical Scores, right forelimb (Day 0, 10 mg/kg): 0 | Detailed Clinical Scores, right hind limb (Day 0, 10 mg/kg): 0 | Detailed Clinical Scores, score (Day 0, 10 mg/kg): 0 | Detailed Clinical Scores, left forelimb (Day 0, 30 mg/kg): 0 | Detailed Clinical Scores, left hind limb (Day 0, 30 mg/kg): 0 | Detailed Clinical Scores, right forelimb (Day 0, 30 mg/kg): 0 | Detailed Clinical Scores, right hind limb (Day 0, 30 mg/kg): 0 | Detailed Clinical Scores, score (Day 0, 30 mg/kg): 0 | Average animal body weight percent change (Day 0, CIA + 3 mg/kg): 0.00% | Mean animal body weight (Day 0, CIA + 3 mg/kg): 165 g | Average animal body weight percent change (Day 0, CIA + 10 mg/kg): 0.00% | Mean animal body weight (Day 0, CIA + 10 mg/kg): 162 g | Average animal body weight percent change (Day 0, CIA + 30 mg/kg): 0.00% | Mean animal body weight (Day 0, CIA + 30 mg/kg): 162 g | Average animal body weight percent change (Day 1, CIA + 3 mg/kg): −0.49% | Mean animal body weight (Day 1, CIA + 3 mg/kg): 164 g | Average animal body weight percent change (Day 1, CIA + 10 mg/kg): −1.45% | Mean animal body weight (Day 1, CIA + 10 mg/kg): 160 g | Average animal body weight percent change (Day 1, CIA + 30 mg/kg): −0.83% | Mean animal body weight (Day 1, CIA + 30 mg/kg): 161 g | Average animal body weight percent change (Day 2, CIA + 3 mg/kg): −0.15% | Mean animal body weight (Day 2, CIA + 3 mg/kg): 165 g | Average animal body weight percent change (Day 2, CIA + 10 mg/kg): −1.29% | Mean animal body weight (Day 2, CIA + 10 mg/kg): 160 g | Average animal body weight percent change (Day 2, CIA + 30 mg/kg): −1.03% | Mean animal body weight (Day 2, CIA + 30 mg/kg): 160 g | Average animal body weight percent change (Day 3, CIA + 3 mg/kg): 1.01% | Mean animal body weight (Day 3, CIA + 3 mg/kg): 167 g | Average animal body weight percent change (Day 3, CIA + 10 mg/kg): 0.91% | Mean animal body weight (Day 3, CIA + 10 mg/kg): 164 g | Average animal body weight percent change (Day 3, CIA + 30 mg/kg): −1.32% | Mean animal body weight (Day 3, CIA + 30 mg/kg): 160 g | Average animal body weight percent change (Day 4, CIA + 3 mg/kg): 0.94% | Mean animal body weight (Day 4, CIA + 3 mg/kg): 166 g | Average animal body weight percent change (Day 4, CIA + 10 mg/kg): 0.99% | Mean animal body weight (Day 4, CIA + 10 mg/kg): 164 g | Average animal body weight percent change (Day 4, CIA + 30 mg/kg): 0.47% | Mean animal body weight (Day 4, CIA + 30 mg/kg): 163 g | Average animal body weight percent change (Day 5, CIA + 3 mg/kg): 1.81% | Mean animal body weight (Day 5, CIA + 3 mg/kg): 168 g | Average animal body weight percent change (Day 5, CIA + 10 mg/kg): 1.43% | Mean animal body weight (Day 5, CIA + 10 mg/kg): 165 g | Average animal body weight percent change (Day 5, CIA + 30 mg/kg): 0.90% | Mean animal body weight (Day 5, CIA + 30 mg/kg): 163 g | Detailed Clinical Scores, left forelimb (Day 6, 3 mg/kg): 0 | Detailed Clinical Scores, right forelimb (Day 6, 3 mg/kg): 0 | Detailed Clinical Scores, right hind limb (Day 6, 3 mg/kg): 0 | Detailed Clinical Scores, left forelimb (Day 6, 10 mg/kg): 0 | Detailed Clinical Scores, left hind limb (Day 6, 10 mg/kg): 0 | Detailed Clinical Scores, right forelimb (Day 6, 10 mg/kg): 0 | Detailed Clinical Scores, right hind limb (Day 6, 10 mg/kg): 0 | Detailed Clinical Scores, score (Day 6, 10 mg/kg): 0 | Detailed Clinical Scores, left forelimb (Day 6, 30 mg/kg): 0 | Detailed Clinical Scores, left hind limb (Day 6, 30 mg/kg): 0 | Detailed Clinical Scores, right forelimb (Day 6, 30 mg/kg): 0 | Detailed Clinical Scores, right hind limb (Day 6, 30 mg/kg): 0 | Detailed Clinical Scores, score (Day 6, 30 mg/kg): 0 | Average animal body weight percent change (Day 6, CIA + 3 mg/kg): 3.40% | Mean animal body weight (Day 6, CIA + 3 mg/kg): 171 g | Average animal body weight percent change (Day 6, CIA + 10 mg/kg): 1.77% | Mean animal body weight (Day 6, CIA + 10 mg/kg): 165 g | Average animal body weight percent change (Day 6, CIA + 30 mg/kg): 0.03% | Mean animal body weight (Day 6, CIA + 30 mg/kg): 162 g | Average animal body weight percent change (Day 7, CIA + 3 mg/kg): 4.80% | Mean animal body weight (Day 7, CIA + 3 mg/kg): 173 g | Average animal body weight percent change (Day 7, CIA + 10 mg/kg): 2.23% | Mean animal body weight (Day 7, CIA + 10 mg/kg): 166 g | Average animal body weight percent change (Day 7, CIA + 30 mg/kg): 0.29% | Mean animal body weight (Day 7, CIA + 30 mg/kg): 162 g | Average animal body weight percent change (Day 8, CIA + 3 mg/kg): 4.69% | Mean animal body weight (Day 8, CIA + 3 mg/kg): 173 g | Average animal body weight percent change (Day 8, CIA + 10 mg/kg): 2.82% | Mean animal body weight (Day 8, CIA + 10 mg/kg): 167 g | Average animal body weight percent change (Day 8, CIA + 30 mg/kg): 1.21% | Mean animal body weight (Day 8, CIA + 30 mg/kg): 164 g | Average animal body weight percent change (Day 9, CIA + 3 mg/kg): 5.59% | Mean animal body weight (Day 9, CIA + 3 mg/kg): 174 g | Average animal body weight percent change (Day 9, CIA + 10 mg/kg): 4.86% | Mean animal body weight (Day 9, CIA + 10 mg/kg): 170 g | Average animal body weight percent change (Day 9, CIA + 30 mg/kg): 2.81% | Mean animal body weight (Day 9, CIA + 30 mg/kg): 166 g | Average animal body weight percent change (Day 10, CIA + 3 mg/kg): 6.84% | Mean animal body weight (Day 10, CIA + 3 mg/kg): 176 g | Average animal body weight percent change (Day 10, CIA + 10 mg/kg): 4.86% | Mean animal body weight (Day 10, CIA + 10 mg/kg): 170 g | Average animal body weight percent change (Day 10, CIA + 30 mg/kg): 2.27% | Mean animal body weight (Day 10, CIA + 30 mg/kg): 166 g | Average animal body weight percent change (Day 11, CIA + 3 mg/kg): 7.79% | Mean animal body weight (Day 11, CIA + 3 mg/kg): 178 g | Average animal body weight percent change (Day 11, CIA + 10 mg/kg): 5.09% | Mean animal body weight (Day 11, CIA + 10 mg/kg): 171 g | Average animal body weight percent change (Day 11, CIA + 30 mg/kg): 2.22% | Mean animal body weight (Day 11, CIA + 30 mg/kg): 165 g | Detailed Clinical Scores, left forelimb (Day 12, 3 mg/kg): 0 | Detailed Clinical Scores, left hind limb (Day 12, 3 mg/kg, 3 mg/kg): 1 | Detailed Clinical Scores, right forelimb (Day 12, 3 mg/kg, 3 mg/kg): 0 (6×) and 1 (2×) | Detailed Clinical Scores, left forelimb (Day 12, 10 mg/kg): 0 | Detailed Clinical Scores, right forelimb (Day 12, 10 mg/kg): 0 | Detailed Clinical Scores, left hind limb (Day 12, 10 mg/kg, 10 mg/kg): 1 (2×) and 0 (2×) | Detailed Clinical Scores, right hind limb (Day 12, 10 mg/kg, 10 mg/kg): 2 and 0 (2×) | Detailed Clinical Scores, score (Day 12, 10 mg/kg, 10 mg/kg): 1 (2×) and 2 and 0 | Detailed Clinical Scores, left forelimb (Day 12, 30 mg/kg): 0 | Detailed Clinical Scores, left hind limb (Day 12, 30 mg/kg): 0 | Detailed Clinical Scores, right forelimb (Day 12, 30 mg/kg): 0 | Detailed Clinical Scores, right hind limb (Day 12, 30 mg/kg, 30 mg/kg): 1 and 0 (5×) | Detailed Clinical Scores, score (Day 12, 30 mg/kg, 30 mg/kg): 1 and 0 (4×) | Average animal body weight percent change (Day 12, CIA + 3 mg/kg): 8.18% | Mean animal body weight (Day 12, CIA + 3 mg/kg): 178 g | Average animal body weight percent change (Day 12, CIA + 10 mg/kg): 4.18% | Mean animal body weight (Day 12, CIA + 10 mg/kg): 169 g
